# Where two headings read alike, the source gives them in different places.
# Tests used:
# [1] = biological target: T1, DA Transporter (DAT) Sites in Mouse Brain (Mus musculus, UniProt Q61327); test: Ex vivo [3H] WIN 35428 binding after oral dosing; design: species or system C57BL/6 mice; details: for Mean Specific Binding (dpm) ± S.E.M., DAT: mice sacrificed 60 minutes after treatment, striatum; for % Transporter Occupancy, DAT: 60 minutes after treatment, vs vehicle
# T1 construct: Striatum was used to determine occupancy of DA transporter sites; from tissue; host or cells: C57BL/6 mouse striatum homogenate
# T1 sequence (Q61327 whole entry): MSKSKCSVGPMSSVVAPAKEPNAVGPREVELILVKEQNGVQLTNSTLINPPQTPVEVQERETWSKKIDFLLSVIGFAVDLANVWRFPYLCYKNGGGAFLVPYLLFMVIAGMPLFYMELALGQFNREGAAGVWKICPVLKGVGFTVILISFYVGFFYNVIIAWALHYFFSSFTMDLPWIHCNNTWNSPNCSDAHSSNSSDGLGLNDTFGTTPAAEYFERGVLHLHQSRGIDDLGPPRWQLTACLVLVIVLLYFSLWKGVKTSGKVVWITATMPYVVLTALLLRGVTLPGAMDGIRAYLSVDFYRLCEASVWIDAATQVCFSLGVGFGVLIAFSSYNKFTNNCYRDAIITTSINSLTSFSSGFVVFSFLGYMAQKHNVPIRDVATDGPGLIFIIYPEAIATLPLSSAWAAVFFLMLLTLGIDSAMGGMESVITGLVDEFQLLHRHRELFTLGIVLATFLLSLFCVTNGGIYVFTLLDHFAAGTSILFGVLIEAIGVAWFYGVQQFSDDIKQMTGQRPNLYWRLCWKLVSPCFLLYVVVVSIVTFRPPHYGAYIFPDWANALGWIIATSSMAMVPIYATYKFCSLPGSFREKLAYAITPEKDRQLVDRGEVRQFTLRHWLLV
# mice [2] = test: Mouse locomotor activity; format: in vivo; details: PO
# Procedure: (§1) In order to ensure effects of the compounds on immobility time were not related to a general stimulant effect on baseline motor activity, locomotor activity was assessed using photocell monitored cages (Med-Associates Inc.). Each test chamber was equipped with infrared photocell beams to measure movement of the animals. Horizontal and vertical activity were measured
# (§2) Rats or mice were pretreated with vehicle or test compounds and placed back in home cage, following which they will be individually placed in locomotor cages and activity was monitored in 5 minute intervals for up to 60 min.
# (§3) Data were analyzed by one way analysis of variance (ANOVA) followed by post-hoc comparisons where appropriate. An effect was considered significant if p < 0.05. Data are represented as the mean and standard error to the mean (s.e.m).
# Rats [3] = test: Rat locomotor activity; format: in vivo; details: PO
# Procedure: as §1, §2, §3
# [4] = biological target: Norepinephrine Transporter (NET) Sites in Mouse Brain (Mus musculus, UniProt O55192); details: PO, mice sacrificed 60 minutes after treatment, cortex
# Chain of Norepinephrine Transporter (NET) Sites in Mouse Brain (O55192 whole entry): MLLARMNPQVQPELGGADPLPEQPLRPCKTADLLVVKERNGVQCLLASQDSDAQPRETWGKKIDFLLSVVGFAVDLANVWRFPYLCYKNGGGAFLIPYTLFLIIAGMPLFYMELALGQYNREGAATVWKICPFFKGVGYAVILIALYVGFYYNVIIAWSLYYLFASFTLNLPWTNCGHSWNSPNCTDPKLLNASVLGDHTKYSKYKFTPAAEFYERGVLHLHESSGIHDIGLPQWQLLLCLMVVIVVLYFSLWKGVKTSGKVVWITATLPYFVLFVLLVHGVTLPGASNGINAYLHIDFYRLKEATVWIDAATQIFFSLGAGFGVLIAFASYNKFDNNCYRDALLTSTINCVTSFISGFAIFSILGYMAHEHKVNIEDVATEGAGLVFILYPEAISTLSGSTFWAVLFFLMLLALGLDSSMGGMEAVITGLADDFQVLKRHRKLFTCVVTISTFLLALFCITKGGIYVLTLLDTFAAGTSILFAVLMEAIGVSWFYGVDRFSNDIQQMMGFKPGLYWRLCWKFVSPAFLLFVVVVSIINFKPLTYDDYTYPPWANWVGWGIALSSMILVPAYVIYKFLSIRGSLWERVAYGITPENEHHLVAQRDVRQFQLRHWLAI
# Rats [5] = test: Rat forced swim test; format: in vivo; details: PO, 24 hours and 30-60 minutes before the 5 minute test
# mice [6] = test: Mouse tail suspension test; format: in vivo; details: PO, 30-60 minutes before the test, 5 minutes recording
# serotonin transporter = biological target: T2, serotonin transporter (Rattus norvegicus, UniProt P31652); test: biochemical; details: Rat IC50 (nM) rSERT, rat synaptosomes, serotonin transporter (SERT)
# T2 construct: synaptosomes isolated in a 0.32M sucrose buffer from a male Wistar rat cortex; from tissue; host or cells: male Wistar rat cortex synaptosomes
# T2 sequence (P31652 whole entry): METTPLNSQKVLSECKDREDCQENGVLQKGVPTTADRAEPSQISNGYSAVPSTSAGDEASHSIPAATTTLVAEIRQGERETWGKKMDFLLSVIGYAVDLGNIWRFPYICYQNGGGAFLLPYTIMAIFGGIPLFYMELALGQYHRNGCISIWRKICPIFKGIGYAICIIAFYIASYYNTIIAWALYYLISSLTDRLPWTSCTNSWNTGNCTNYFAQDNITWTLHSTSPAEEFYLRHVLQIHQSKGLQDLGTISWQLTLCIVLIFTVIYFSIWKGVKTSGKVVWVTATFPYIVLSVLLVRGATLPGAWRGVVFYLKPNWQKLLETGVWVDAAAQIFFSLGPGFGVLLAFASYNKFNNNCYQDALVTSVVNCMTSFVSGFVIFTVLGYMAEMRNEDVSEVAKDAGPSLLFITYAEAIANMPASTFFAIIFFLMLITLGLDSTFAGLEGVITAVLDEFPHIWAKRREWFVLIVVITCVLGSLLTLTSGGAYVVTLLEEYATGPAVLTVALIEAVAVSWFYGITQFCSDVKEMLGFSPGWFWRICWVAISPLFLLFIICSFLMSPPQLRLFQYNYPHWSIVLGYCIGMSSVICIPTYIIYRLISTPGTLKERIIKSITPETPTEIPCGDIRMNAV
# [7] = biological target: T3, 5-HT Transporter (SERT) Sites in Mouse Brain (Mus musculus, UniProt Q60857); test: Ex vivo [3H] citalopram binding after oral dosing; design: species or system C57BL/6 mice; details: for % Transporter Occupancy, SERT: 60 minutes after treatment, vs vehicle; for Mean Specific Binding (dpm) ± S.E.M., SERT: mice sacrificed 60 minutes after treatment, cortex
# T3 construct: Whole brains were removed and cortex and striata dissected out; from tissue; host or cells: C57BL/6 mouse frontal cortex homogenate
# T3 sequence (Q60857 whole entry): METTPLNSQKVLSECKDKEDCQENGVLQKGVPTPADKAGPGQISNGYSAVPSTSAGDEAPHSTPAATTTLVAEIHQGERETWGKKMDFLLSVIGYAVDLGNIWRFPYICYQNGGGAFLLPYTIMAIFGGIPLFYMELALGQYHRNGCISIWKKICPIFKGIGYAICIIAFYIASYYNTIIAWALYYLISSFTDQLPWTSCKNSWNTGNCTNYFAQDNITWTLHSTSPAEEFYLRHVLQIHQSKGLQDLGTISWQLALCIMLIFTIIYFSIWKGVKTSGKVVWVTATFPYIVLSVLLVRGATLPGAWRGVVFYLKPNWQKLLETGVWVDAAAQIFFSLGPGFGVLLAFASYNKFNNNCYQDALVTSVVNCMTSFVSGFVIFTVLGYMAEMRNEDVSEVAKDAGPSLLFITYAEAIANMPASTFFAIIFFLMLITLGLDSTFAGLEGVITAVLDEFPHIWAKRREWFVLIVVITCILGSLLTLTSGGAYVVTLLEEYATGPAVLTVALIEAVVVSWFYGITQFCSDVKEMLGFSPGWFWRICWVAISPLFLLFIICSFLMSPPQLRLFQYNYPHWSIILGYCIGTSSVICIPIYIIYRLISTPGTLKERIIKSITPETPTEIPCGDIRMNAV
structure (smiles),measurement,setting,value
"CNC(C)C1(c2ccc(Cl)c(Cl)c2)CCCCC1.Cl (single isomer, unassigned) [48 E1, 1-(1-(3,4-dichlorophenyl)cyclohexyl)-N-methylethanamine hydrochloride]","Mean Specific Binding (dpm) ± S.E.M., DAT",[1]; 1 mg/kg,20656 ± 1531 dpm
same,"Mean Specific Binding (dpm) ± S.E.M., DAT",[1]; 3 mg/kg,18039 ± 1265 dpm
same,"Mean Specific Binding (dpm) ± S.E.M., DAT",[1]; 10 mg/kg,9792 ± 977 dpm
same,"Mean Specific Binding (dpm) ± S.E.M., DAT",[1]; 30 mg/kg,3173 ± 541 dpm
same,Mouse Locomotor Activity Total Distance Traveled ± S.E.M.,mice [2]; 3 mg/kg,622.5 ± 101.6
same,Mouse Locomotor Activity Total Distance Traveled ± S.E.M.,mice [2]; 10 mg/kg,620.0 ± 79.4
same,Mouse Locomotor Activity Total Distance Traveled ± S.E.M.,mice [2]; 30 mg/kg,468.6 ± 114.2
same,Rat Locomotor Activity Total Distance Traveled ± S.E.M.,Rats [3]; 3 mg/kg,1869.9 ± 188.4
same,Rat Locomotor Activity Total Distance Traveled ± S.E.M.,Rats [3]; 10 mg/kg,1825.3 ± 109.3
same,Rat Locomotor Activity Total Distance Traveled ± S.E.M.,Rats [3]; 30 mg/kg,1840.6 ± 56.6
same,"Mean Specific Binding (dpm) ± S.E.M., NET",[4]; 1 mg/kg,2111 ± 119 dpm
same,"Mean Specific Binding (dpm) ± S.E.M., NET",[4]; 3 mg/kg,1911 ± 144 dpm
same,"Mean Specific Binding (dpm) ± S.E.M., NET",[4]; 10 mg/kg,954 ± 115 dpm
same,"Mean Specific Binding (dpm) ± S.E.M., NET",[4]; 30 mg/kg,346 ± 55 dpm
same,Rat Forced Swim (Means ± S.E.M.) Climbing,Rats [5]; 3 mg/kg,7.1 ± 0.6
same,Rat Forced Swim (Means ± S.E.M.) Immobility,Rats [5]; 3 mg/kg,49.6 ± 1.5
same,Rat Forced Swim (Means ± S.E.M.) Swimming,Rats [5]; 3 mg/kg,3.7 ± 1.0
same,Rat Forced Swim (Means ± S.E.M.) Climbing,Rats [5]; 10 mg/kg,17.9 ± 2.5
same,Rat Forced Swim (Means ± S.E.M.) Immobility,Rats [5]; 10 mg/kg,35.6 ± 3.5
same,Rat Forced Swim (Means ± S.E.M.) Swimming,Rats [5]; 10 mg/kg,6.5 ± 1.6
same,Rat Forced Swim (Means ± S.E.M.) Climbing,Rats [5]; 30 mg/kg,20.6 ± 2.9
same,Rat Forced Swim (Means ± S.E.M.) Immobility,Rats [5]; 30 mg/kg,26.9 ± 4.4
same,Rat Forced Swim (Means ± S.E.M.) Swimming,Rats [5]; 30 mg/kg,9.7 ± 1.7
same,Mouse Tail Suspension Mean Immobility Time ± S.E.M.,mice [6]; 3 mg/kg,189.8 ± 7.2
same,Mouse Tail Suspension Mean Immobility Time ± S.E.M.,mice [6]; 10 mg/kg,174.1 ± 5.8
same,Mouse Tail Suspension Mean Immobility Time ± S.E.M.,mice [6]; 30 mg/kg,134.5 ± 9.6
"CNC(C)C1(c2ccc3ccccc3c2)CCCCC1 (single isomer, unassigned) [58 E1, N-methyl-1-(1-(naphthalen-2-yl)cyclohexyl)ethanamine]","% Transporter Occupancy, DAT",[1]; 1 mg/kg,7%
same,"Mean Specific Binding (dpm) ± S.E.M., DAT",[1]; 1 mg/kg,15732 ± 1360 dpm
same,"% Transporter Occupancy, DAT",[1]; 3 mg/kg,11%
same,"Mean Specific Binding (dpm) ± S.E.M., DAT",[1]; 3 mg/kg,14938 ± 2613 dpm
same,"% Transporter Occupancy, DAT",[1]; 10 mg/kg,-2%
same,"Mean Specific Binding (dpm) ± S.E.M., DAT",[1]; 10 mg/kg,17215 ± 2151 dpm
same,"% Transporter Occupancy, DAT",[1]; 30 mg/kg,24%
same,"Mean Specific Binding (dpm) ± S.E.M., DAT",[1]; 30 mg/kg,12876 ± 2152 dpm
same,IC50,serotonin transporter,9.5 nM
same,"% Transporter Occupancy, SERT",[7]; 1 mg/kg,5%
same,"Mean Specific Binding (dpm) ± S.E.M., SERT",[7]; 1 mg/kg,3245 ± 107 dpm
same,"% Transporter Occupancy, SERT",[7]; 3 mg/kg,11%
same,"Mean Specific Binding (dpm) ± S.E.M., SERT",[7]; 3 mg/kg,3021 ± 182 dpm
same,"% Transporter Occupancy, SERT",[7]; 10 mg/kg,47%
same,"Mean Specific Binding (dpm) ± S.E.M., SERT",[7]; 10 mg/kg,1799 ± 115 dpm
same,"% Transporter Occupancy, SERT",[7]; 30 mg/kg,86%
same,"Mean Specific Binding (dpm) ± S.E.M., SERT",[7]; 30 mg/kg,469 ±43 dpm
"CNC(C)C1(c2ccc3ccccc3c2)CCCCC1 (single isomer, unassigned) [58 E2, N-methyl-1-(1-(naphthalen-2-yl)cyclohexyl)ethanamine]",IC50,serotonin transporter,100 nM

# Source: patent publication EP1976513B1 (priority 2006, dated 2007)
